≈ marks a conversion by molar mass, not a printed value. Where two headings read alike, the source gives them in different places. Where no end group is shown, it is not given here.
Columns and labels:
A. baumannii = assay: microbe, parasite or virus in culture; assay type: cell-based, Acinetobacter baumannii; details: 18 h
Experimental: (§1) Bacterial clinical isolates, used for initial screening and in previous studies ([Deslouches et al., 2013]; [Lin et al., 2018]), were anonymously provided by the clinical microbiology laboratory of the University of Pittsburgh medical Center. The panel used for secondary screening was from [CDC (2013)] (Supplementary Table 3), with resistance profiles data. Bacteria are stored in lock-secured –80°C freezer and typically retrieved by obtaining single colonies on agar plates prior for subsequent liquid broth cultures. Suspensions of test bacteria were prepared from log phase of growth by diluting overnight cultures at 1:100 with fresh cation-adjusted MHB (MHB2, Millipore Sigma, United States) and incubating for additional 3–4 h. Bacteria were spun at 3,000 × g for 10 min and the pellet resuspended in test condition media (Millipore Sigma, United States) to determine bacterial turbidity using a Den-1B densitometer (Grant Instruments, United States) at 0.5 McFarland (unit of bacterial density) corresponding to […].
(§2) To examine antibacterial activity, we used minor modifications of a standard growth inhibition assay endorsed by the Clinical and Laboratory Standards Institute (CLSI), as previously described ([Deslouches et al., 2013]). Bacteria were incubated with each of the indicated peptides in MHB2. The bacterial cells were kept in an incubator for 18 h at 37°C, which is linked to a robotic system that feeds a plate reader every hour with one of 8 × 96-well plates. This set-up allows the collection of growth kinetic data at A 570 (absorbance at 570 nm) to examine growth inhibition in real time (BioTek Instruments, United States). […] The assays are typically repeated a second time. If the MIC is different, a third experimental trial is performed to confirm the MIC. To assess bactericidal properties of the peptide, the assay was modified by using 15% fetal bovine serum (FBS, for a more physiologically relevant test condition) mixed with 25% MHB2 and 60% PBS. Bacterial cells (colony forming unit/mL or CFU/mL) were enumerated after incubating treated bacteria for 3 h and plating serially diluted samples on broth agar medium at 37°C overnight. Minimum bactericidal concentration (MBC) was determined as the peptide concentration at which complete bacterial killing was observed. […] Data were analyzed using GraphPad Prism software.

E. coli = assay: microbe, parasite or virus in culture; assay type: cell-based, Escherichia coli
Experimental: as §1, §2

Enterobacter spp = assay: microbe, parasite or virus in culture; assay type: cell-based, Enterobacter spp (aerogenes, cloacae); details: Enterobacter, 18 h, UPMC, MHB2, 18 h, 37°C
Experimental: as §1, §2

K. pneumoniae = assay: microbe, parasite or virus in culture; assay type: cell-based, Klebsiella pneumoniae; details: Klebsiella pneumoniae, 18 h, MHB2, 18 h, 37°C
Experimental: as §1, §2

CDC AR isolates [1] = test system: CDC AR isolates; set-up: key: S (green), susceptible; I (blue), intermediate; R (red), resistant; details: data provided by the CDC, ref CDC, cited from earlier work
From the text: Supplement Table_3.XLSX, sheet "CDC AR isolates profiles" | column: G(-) strains

CDC AR isolates [2] = test system: CDC AR isolates; set-up: key: S (green), susceptible; I (blue), intermediate; R (red), resistant; details: data provided by the CDC, ref CDC, cited from earlier work; remark: listed apart in the source
[3] = Acinetobacter baumannii AB273, CDC AR isolate
[4] = Acinetobacter baumannii AB274, CDC AR isolate
[5] = Acinetobacter baumannii AB275, CDC AR isolate
[6] = Acinetobacter baumannii AB276, CDC AR isolate
[7] = Enterobacter cloacae E62, CDC AR isolate
[8] = Enterobacter cloacae E544, CDC AR isolate
[9] = Enterobacter cloacae E545, CDC AR isolate
[10] = Enterobacter cloacae E546, CDC AR isolate
[11] = Escherichia coli EC541, CDC AR isolate
[12] = Escherichia coli EC543, CDC AR isolate
[13] = Escherichia coli EC544, CDC AR isolate
[14] = Escherichia coli EC549, CDC AR isolate
[15] = Klebsiella pneumoniae KP542, CDC AR isolate
[16] = Klebsiella pneumoniae KP548, CDC AR isolate
[17] = Klebsiella pneumoniae KP550, CDC AR isolate
[18] = Klebsiella pneumoniae KP552, CDC AR isolate
[19] = Enterococcus faecium EF500, CDC AR isolate
[20] = Enterococcus faecium EF671, CDC AR isolate
[21] = Enterococcus faecium EF672, CDC AR isolate
[22] = Staphylococcus aureus SA462, CDC AR isolate
[23] = Staphylococcus aureus SA463, CDC AR isolate
[24] = Enterococcus faecium EF673, CDC AR isolate
[25] = Staphylococcus aureus SA461, CDC AR isolate
[26] = Staphylococcus aureus SA561, CDC AR isolate

Which results are given for `C[C@@H](O)[C@H]1C(=O)N2C(C(=O)O)=C(S[C@@H]3CN[C@H](C(=O)N(C)C)C3)[C@H](C)[C@H]12` [Meropenem, reference compound]?
MIC (A. baumannii; Acinetobacter baumannii, strain AB-A2, UPMC clinical strain, MHB2, 18 h, 37°C, A570, confirmed by 2nd or 3rd trial): 4 µM (≈ 1.53 µg/mL); MIC (A. baumannii; Acinetobacter baumannii, strain AB-A3, UPMC, MHB2, 18 h, 37°C): > 16 µM; MIC (A. baumannii; Acinetobacter baumannii, strain AB-F8, UPMC, MHB2, 18 h, 37°C): 8 µM (≈ 3.07 µg/mL); MIC (A. baumannii; Acinetobacter baumannii, strain AB-F9, UPMC, MHB2, 18 h, 37°C): 8 µM (≈ 3.07 µg/mL); MIC (E. coli; Escherichia coli, 18 h, strain Eco25922, MHB2, 18 h, 37°C): 0.5 µM (≈ 0.192 µg/mL); MIC (E. coli; Escherichia coli, 18 h, strain YDC107, UPMC, MHB2, 18 h, 37°C): 1 µM (≈ 0.383 µg/mL); MIC (E. coli; Escherichia coli, 18 h, strain YDC337, UPMC, MHB2, 18 h, 37°C): 8 µM (≈ 3.07 µg/mL); MIC (E. coli; Escherichia coli, 18 h, strain YDC748, UPMC, MHB2, 18 h, 37°C): 8 µM (≈ 3.07 µg/mL); MIC (Enterobacter spp; strain EA518 (aerogenes)): > 16 µM; MIC (Enterobacter spp; strain EA596 (aerogenes)): 16 µM (≈ 6.14 µg/mL); MIC (Enterobacter spp; strain EC470 (cloacae)): > 16 µM; MIC (Enterobacter spp; strain EC560 (cloacae)): 16 µM (≈ 6.14 µg/mL); MIC (K. pneumoniae; strain KP43816): 1 µM (≈ 0.383 µg/mL); MIC (K. pneumoniae; strain KPA5 (colistin-resistant), UPMC): 2 µM (≈ 0.767 µg/mL); MIC (K. pneumoniae; strain KPB3, UPMC): 2 µM (≈ 0.767 µg/mL); MIC (K. pneumoniae; strain KPC3, UPMC): 1 µM (≈ 0.383 µg/mL); Antibiotic susceptibility profile (CDC AR isolates [1]; [3]): R; Antibiotic susceptibility profile (CDC AR isolates [1]; [4]): R; Antibiotic susceptibility profile (CDC AR isolates [1]; [5]): R; Antibiotic susceptibility profile (CDC AR isolates [1]; [6]): R; Antibiotic susceptibility profile (CDC AR isolates [1]; [7]): S; Antibiotic susceptibility profile (CDC AR isolates [1]; [8]): R; Antibiotic susceptibility profile (CDC AR isolates [1]; [9]): S; Antibiotic susceptibility profile (CDC AR isolates [1]; [10]): I; Antibiotic susceptibility profile (CDC AR isolates [1]; [11]): S; Antibiotic susceptibility profile (CDC AR isolates [1]; [12]): I; Antibiotic susceptibility profile (CDC AR isolates [1]; [13]): R; Antibiotic susceptibility profile (CDC AR isolates [1]; [14]): R; Antibiotic susceptibility profile (CDC AR isolates [1]; [15]): I; Antibiotic susceptibility profile (CDC AR isolates [1]; [16]): R; Antibiotic susceptibility profile (CDC AR isolates [1]; [17]): R; Antibiotic susceptibility profile (CDC AR isolates [1]; [18]): R; Antibiotic susceptibility profile (CDC AR isolates [1]; Pseudomonas aeruginosa PA229, CDC AR isolate): R; Antibiotic susceptibility profile (CDC AR isolates [1]; Pseudomonas aeruginosa PA230, CDC AR isolate): R; Antibiotic susceptibility profile (CDC AR isolates [1]; Pseudomonas aeruginosa PA231, CDC AR isolate): R; Antibiotic susceptibility profile (CDC AR isolates [1]; Pseudomonas aeruginosa PA232, CDC AR isolate): I; Antibiotic susceptibility profile (CDC AR isolates [1]; Pseudomonas aeruginosa PA239, CDC AR isolate): R

Which results are given for `CO[C@H]1/C=C/O[C@@]2(C)Oc3c(C)c(O)c4c(O)c(c(/C=N/N5CCN(C)CC5)c(O)c4c3C2=O)NC(=O)/C(C)=C\C=C\[C@H](C)[C@H](O)[C@@H](C)[C@@H](O)[C@@H](C)[C@H](OC(C)=O)[C@@H]1C` [Rifampin]?
Antibiotic susceptibility profile (CDC AR isolates [1]; [19]): R; Antibiotic susceptibility profile (CDC AR isolates [1]; [20]): I; Antibiotic susceptibility profile (CDC AR isolates [1]; [21]): I; Antibiotic susceptibility profile (CDC AR isolates [1]; [22]): S; Antibiotic susceptibility profile (CDC AR isolates [1]; [23]): S; Antibiotic susceptibility profile (CDC AR isolates [2]; [24]): S; Antibiotic susceptibility profile (CDC AR isolates [2]; [25]): S

Which results are given for `CN(C)[C@@H]1C(O)=C(C(N)=O)C(=O)[C@@]2(O)C(O)=C3C(=O)c4c(O)cccc4[C@@](C)(O)[C@H]3C[C@@H]12` [Tetracycline]?
Antibiotic susceptibility profile (CDC AR isolates [1]; [3]): R; Antibiotic susceptibility profile (CDC AR isolates [1]; [4]): R; Antibiotic susceptibility profile (CDC AR isolates [1]; [5]): R; Antibiotic susceptibility profile (CDC AR isolates [1]; [6]): S; Antibiotic susceptibility profile (CDC AR isolates [1]; [7]): S; Antibiotic susceptibility profile (CDC AR isolates [1]; [8]): R; Antibiotic susceptibility profile (CDC AR isolates [1]; [9]): I; Antibiotic susceptibility profile (CDC AR isolates [1]; [10]): R; Antibiotic susceptibility profile (CDC AR isolates [1]; [11]): R; Antibiotic susceptibility profile (CDC AR isolates [1]; [12]): R; Antibiotic susceptibility profile (CDC AR isolates [1]; [13]): R; Antibiotic susceptibility profile (CDC AR isolates [1]; [14]): R; Antibiotic susceptibility profile (CDC AR isolates [1]; [15]): R; Antibiotic susceptibility profile (CDC AR isolates [1]; [16]): I; Antibiotic susceptibility profile (CDC AR isolates [1]; [17]): S; Antibiotic susceptibility profile (CDC AR isolates [1]; [18]): R; Antibiotic susceptibility profile (CDC AR isolates [1]; [22]): S; Antibiotic susceptibility profile (CDC AR isolates [1]; [23]): S; Antibiotic susceptibility profile (CDC AR isolates [1]; [26]): R; Antibiotic susceptibility profile (CDC AR isolates [2]; [25]): S

Which results are given for `CN[C@H](CC(C)C)C(=O)N[C@H]1C(=O)N[C@@H](CC(N)=O)C(=O)N[C@H]2C(=O)N[C@H]3C(=O)N[C@H](C(=O)N[C@H](C(=O)O)c4cc(O)cc(O)c4-c4cc3ccc4O)[C@H](O)c3ccc(c(Cl)c3)Oc3cc2cc(c3O[C@@H]2O[C@H](CO)[C@@H](O)[C@H](O)[C@H]2O[C@H]2C[C@](C)(N)[C@H](O)[C@H](C)O2)Oc2ccc(cc2Cl)[C@H]1O` [Vancomycin]?
Antibiotic susceptibility profile (CDC AR isolates [1]; [19]): S; Antibiotic susceptibility profile (CDC AR isolates [1]; [20]): S; Antibiotic susceptibility profile (CDC AR isolates [1]; [21]): S; Antibiotic susceptibility profile (CDC AR isolates [1]; [22]): I; Antibiotic susceptibility profile (CDC AR isolates [1]; [23]): S; Antibiotic susceptibility profile (CDC AR isolates [1]; [26]): S; Antibiotic susceptibility profile (CDC AR isolates [2]; [24]): S; Antibiotic susceptibility profile (CDC AR isolates [2]; [25]): S

For Penicillin, which Antibiotic susceptibility profile (CDC AR isolates [1]; [19]) is on record?
Its Antibiotic susceptibility profile is “R”.

What about the Antibiotic susceptibility profile (CDC AR isolates [1]; [20]) of the same compound?
The Antibiotic susceptibility profile was “S”.

What about the Antibiotic susceptibility profile (CDC AR isolates [1]; [21]) of the same compound?
The Antibiotic susceptibility profile was “S”.

What about the Antibiotic susceptibility profile (CDC AR isolates [1]; [22]) of the same compound?
Its Antibiotic susceptibility profile is “R”.

What about the Antibiotic susceptibility profile (CDC AR isolates [1]; [23]) of the same compound?
The Antibiotic susceptibility profile was “R”.

What about the Antibiotic susceptibility profile (CDC AR isolates [1]; [26]) of the same compound?
The Antibiotic susceptibility profile was “R”.

What about the Antibiotic susceptibility profile (CDC AR isolates [2]; [24]) of the same compound?
The Antibiotic susceptibility profile was “S”.

And the Antibiotic susceptibility profile (CDC AR isolates [2]; [25])?
Its Antibiotic susceptibility profile is “S”.

With RRVWRRVRRVWRRVRRVVRRVW [E71] as the compound, how does the MIC (A. baumannii) read?
Its MIC is 8 µM.

For RRVWRRVRRVWRRVRRWVRRVV [E72], which MIC (E. coli) is on record?
Its MIC is 0.5 µM.

Which MIC (A. baumannii) does the source give for RRWVRWVRRWVRWVRR [E80] here?
Its MIC is 16 µM.

With RVWRRVRRVWRRVRRVWRRV [E69] as the compound, how does the MIC (A. baumannii) read?
The MIC was 8 µM.

What does the source list for Teicoplanin?
Antibiotic susceptibility profile (CDC AR isolates [1]; [19]): S; Antibiotic susceptibility profile (CDC AR isolates [1]; [20]): S; Antibiotic susceptibility profile (CDC AR isolates [1]; [21]): S; Antibiotic susceptibility profile (CDC AR isolates [2]; [24]): S
